# Measured values from patent US9624229B2, “Pyrimidine-2-amine compounds and their use as inhibitors of JAK kinases” (Rigel Pharmaceuticals, Inc., priority 2008, dated 2017).
# Where two headings read alike, the source gives them in different places.
# Molecular target: Ba/F3 V617F cells (Homo sapiens, UniProt O60674, V617F, cells depend on it)
# Test: Proliferation assay (Cell Titer-Glo, 72 h) utilizing Ba/F3 V617F cells
# Assay type: cell-based, mouse
# Outline: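 Readout is CellTiter-Glo luminescence after 72 h at 37 °C, giving IC50. Cells: Ba/F3 V617F, 1×10^5 cells/mL in RPMI with 10% FBS, treated in duplicate with 3-fold dilution series made from 5 mM DMSO stock, 1:250 in 5% FBS medium, added at 2×.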
# [1] = Ba/F3 V617F cells, proliferation, level of activity to inhibit JAK2, read-out: IC50 (the source's name)
# [2] = Ba/F3 V617F cells, proliferation, level of activity given as class symbol, read-out: IC50 (the source's name)
# Chain of Ba/F3 V617F cells (O60674 whole entry V617F): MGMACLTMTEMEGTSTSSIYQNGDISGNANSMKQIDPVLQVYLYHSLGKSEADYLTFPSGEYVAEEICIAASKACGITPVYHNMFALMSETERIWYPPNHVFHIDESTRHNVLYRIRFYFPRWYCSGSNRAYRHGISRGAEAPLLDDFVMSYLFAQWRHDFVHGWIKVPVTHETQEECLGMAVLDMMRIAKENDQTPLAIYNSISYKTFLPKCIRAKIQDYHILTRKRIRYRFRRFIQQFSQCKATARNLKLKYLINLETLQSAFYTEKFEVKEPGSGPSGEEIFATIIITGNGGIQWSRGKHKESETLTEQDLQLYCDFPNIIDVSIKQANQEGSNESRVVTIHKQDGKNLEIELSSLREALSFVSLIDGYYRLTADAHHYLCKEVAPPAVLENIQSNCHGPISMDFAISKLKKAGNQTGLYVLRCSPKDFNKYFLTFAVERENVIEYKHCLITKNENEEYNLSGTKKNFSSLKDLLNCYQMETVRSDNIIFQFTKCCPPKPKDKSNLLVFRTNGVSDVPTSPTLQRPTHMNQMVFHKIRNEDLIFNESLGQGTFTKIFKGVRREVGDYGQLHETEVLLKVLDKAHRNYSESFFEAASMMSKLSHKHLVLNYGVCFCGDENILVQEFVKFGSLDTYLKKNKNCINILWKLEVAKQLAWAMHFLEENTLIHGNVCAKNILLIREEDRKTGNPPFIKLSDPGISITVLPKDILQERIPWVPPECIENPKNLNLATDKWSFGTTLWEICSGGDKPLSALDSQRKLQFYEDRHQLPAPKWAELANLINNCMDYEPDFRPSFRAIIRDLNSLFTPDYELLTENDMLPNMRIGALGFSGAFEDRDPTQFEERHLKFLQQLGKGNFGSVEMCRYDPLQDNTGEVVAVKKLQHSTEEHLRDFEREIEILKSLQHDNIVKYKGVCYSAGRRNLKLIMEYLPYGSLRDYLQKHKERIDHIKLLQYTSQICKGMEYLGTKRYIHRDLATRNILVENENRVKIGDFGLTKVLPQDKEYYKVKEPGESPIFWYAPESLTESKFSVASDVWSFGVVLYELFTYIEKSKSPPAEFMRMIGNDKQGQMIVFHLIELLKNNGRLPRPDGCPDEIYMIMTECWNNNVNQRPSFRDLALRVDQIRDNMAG
GI50 [1] [nM],GI50 [2] [nM],Structure (SMILES),other results
1000 to 10000,–,"CCOC(C)c1ccc(-c2ccnc(Nc3ccc(N4C[C@@H]5C[C@H]4CN5C)c(C)c3)n2)cc1 (stereo partly drawn) [compound 181, 4-(4-(1-ethoxyethyl)phenyl)-N-(3-methyl-4-((1S,4S)-5-methyl-2,5-diazabicyclo[2.2.1]heptan-2-yl)phenyl)pyrimidin-2-amine]",–
< 1000,–,"Cc1cc(Nc2nccc(-c3cncc(C(=O)N4CCOCC4)c3)n2)ccc1N1C[C@@H]2C[C@H]1CN2C [compound 52, 4-(5-((morpholin-4-yl)carbonyl)pyridin-3-yl)-N-(3-methyl-4-((1S,4S)-5-methyl-2,5-diazabicyclo[2.2.1]heptan-2-yl)phenyl)pyrimidin-2-amine]",–
1000 to 10000,–,"CCOC(C)c1ccc(-c2ccnc(Nc3ccc(N4C[C@@H]5C[C@H]4CN5C)c(F)c3)n2)cc1 (stereo partly drawn) [compound 182, 4-(4-(1-ethoxyethyl)phenyl)-N-(3-fluoro-4-((1S,4S)-5-methyl-2,5-diazabicyclo[2.2.1]heptan-2-yl)phenyl)pyrimidin-2-amine]",–
< 1000,–,"Cc1cc(Nc2nccc(-c3ccc(NCc4ccccc4)nc3)n2)ccc1N1C[C@@H]2C[C@H]1CN2C [compound 80, 4-(6-(benzylamino)pyridin-3-yl)-N-(3-methyl-4-((1S,4S)-5-methyl-2,5-diazabicyclo[2.2.1]heptan-2-yl)phenyl)pyrimidin-2-amine]",–
–,< 1000,"Cc1cc(Nc2nccc(-c3ccc(C(F)(F)F)cc3)n2)ccc1N1C[C@@H]2C[C@H]1CN2C [compound 269, 4-(4-(trifluoromethyl)phenyl)-N-(3-methyl-4-((1S,4S)-5-methyl-2,5-diazabicyclo[2.2.1]heptan-2-yl)phenyl)pyrimidin-2-amine]",–
< 1000,–,"CN1C[C@H]2C[C@@H]1CN2c1ccc(Nc2nccc(-c3ccc(N4CCOCC4)nc3)n2)cc1F [compound 74, 4-(6-(morpholin-4-yl)pyridin-3-yl)-N-(3-fluoro-4-((1R,4R)-5-methyl-2,5-diazabicyclo[2.2.1]heptan-2-yl)phenyl)pyrimidin-2-amine]",–
10000 to 20000,–,"Cc1cc(Nc2nccc(-c3ccc(-c4nnn[nH]4)nc3)n2)ccc1N1C[C@@H]2C[C@H]1CN2C [compound 115, 4-(6-(1H-tetrazol-5-yl)pyridin-3-yl)-N-(3-methyl-4((1S,4S)-5-methyl-2,5-diazabicyclo[2.2.1]heptan-2-yl)phenyl)pyrimidin-2-amine]",–
< 1000,–,"Cc1cc(Nc2nccc(-c3ccc(NS(C)(=O)=O)cc3)n2)ccc1N1C[C@@H]2C[C@H]1CN2C [compound 136, 4-(4-(methylsulfonylamino)phenyl)-N-(3-methyl-4-((1S,4S)-5-methyl-2,5-diazabicyclo[2.2.1]heptan-2-yl)phenyl)pyrimidin-2-amine]",–
< 1000,–,"CCOc1ccc(-c2ccnc(Nc3ccc(N4C[C@@H]5C[C@H]4CN5C)c(C)c3)n2)cn1 [compound 173, 4-(6-ethoxypyridin-3-yl)-N-(3-methyl-4-((1S,4S)-5-methyl-2,5-diazabicyclo[2.2.1]heptan-2-yl)phenyl)pyrimidin-2-amine]",–
–,< 1000,"Cc1cc(Nc2nccc(-c3ccc(N4C[C@@H]5C[C@H]4CO5)nc3)n2)ccc1N1CCN2CCC1CC2 [compound 280, 4-(6-((1S,4S)-2-oxa-5-azabicyclo[2.2.1]heptan-5-yl)pyridin-3-yl)-N-(3-methyl-4-(1,4-diazabicyclo[3.2.2]nonan-4-yl)phenyl)pyrimidin-2-amine]",–
< 1000,–,"CC(=O)N1C[C@@H]2C[C@H]1CN2c1ccc(Nc2nccc(-c3ccc(N4CCOCC4)nc3)n2)cc1C#N [compound 116, 4-(6-(morpholin-4-yl)pyridin-3-yl)-N-(3-cyano-4-((1S,4S)-5-acetyl-2,5-diazabicyclo[2.2.1]heptan-2-yl)phenyl)pyrimidin-2-amine]",–
1000 to 10000,–,"Cc1cc(Nc2nccc(-c3cncc(C#N)c3)n2)ccc1N1C[C@@H]2C[C@H]1CN2C [compound 114, 4-(5-cyanopyridin-3-yl)-N-(3-methyl-4((1S,4S)-5-methyl-2,5-diazabicyclo[2.2.1]heptan-2-yl)phenyl)pyrimidin-2-amine]",–
–,1000 to 10000,"Cc1cc(Nc2nccc(-c3ccc(NCCCN(C)C)nc3)n2)ccc1N1CC2(C)CN(C)CC(C)(C1)C2 [compound 214, 4-(6-(3-dimethylamino)propylaminopyridin-3-yl)-N-(3-methyl-4-(1,5,7-trimethyl-3,7-diazabicyclo[3.3.1]nonan-3-yl)phenyl)pyrimidin-2-amine]",–
–,< 1000,"Cc1cc(Nc2nccc(-c3ccc4c(c3)CCCC(=O)N4)n2)ccc1N1C[C@@H]2C[C@H]1CN2S(C)(=O)=O [compound 243, 4-(2-oxo-2,3,4,5-tetrahydro-1H-benzo[b]azepin-7-yl)-N-(3-methyl-4-((1S,4S)-5-methylsulfonyl-2,5-diazabicyclo[2.2.1]heptan-2-yl)phenyl)pyrimidin-2-amine]",–
–,< 1000,"CCC(=O)N1C[C@@H]2C[C@H]1CN2c1ccc(Nc2nccc(-c3ccc(N4CCOCC4)nc3)n2)cc1C [compound 196, 4-(6-(morpholin-4-yl)pyridin-3-yl)-N-(3-methyl-4-((1S,4S)-5-ethylcarbonyl-2,5-diazabicyclo[2.2.1]heptan-2-yl)phenyl)pyrimidin-2-amine]",–
–,< 1000,"Cc1cc(Nc2nccc(-c3ccc4c(c3)SCC(=O)N4)n2)ccc1N1C[C@@H]2C[C@H]1CN2C [compound 274, 4-(3-oxo-3,4-dihydro-2H-benzo[b][1,4]thiazin-7-yl)-N-(3-methyl-4-((1S,4S)-5-methyl-2,5-diazabicyclo[2.2.1]heptan-2-yl)phenyl)pyrimidin-2-amine]",–
–,< 1000,"Cc1cc(Nc2nccc(-c3ccc(N4CCOCC4)nc3)n2)ccc1N1C[C@@H]2C[C@H]1CN2C [compound 231, 4-(6-(morpholin-4-yl)pyridin-3-yl)-N-(3-methyl-4-((1S,4S)-5-methyl-2,5-diazabicyclo[2.2.1]heptan-2-yl)phenyl)pyrimidin-2-amine]",–
< 1000,–,"COc1ccc2cc(-c3ccnc(Nc4ccc(N5C[C@@H]6C[C@H]5CN6C)c(C)c4)n3)[nH]c2c1 [compound 105, 4-(6-methoxy-1H-indol-2-yl)-N-(3-methyl-4-((1S,4S)-5-methyl-2,5-diazabicyclo[2.2.1]heptan-2-yl)phenyl)pyrimidin-2-amine]",–
–,–,"CC(=O)N1CCN(c2ccc(-c3ccnc(Nc4ccc(N5C[C@@H]6C[C@H]5CN6C)nc4)n3)cn2)CC1 [compound 57, 4-(6-(4-acetylpiperazin-1-yl)pyridin-3-yl)-N-(6-((1S,4S)-5-methyl-2,5-diazabicyclo[2.2.1]heptan-2-yl)pyridin-3-yl)pyrimidin-2-amine]","GI50 (inhibition of JAK2 activity, proliferation of Ba/F3 V617F cells, read-out: IC50 (the source's name)): 1000 to 10000 nM"
–,< 1000,"COCCN(C)c1ccc(-c2ccnc(Nc3ccc(N4C[C@@H]5C[C@H]4CO5)c(C)c3)n2)cn1 [compound 220, 4-(6-(2-methoxyethyl)(methyl)aminopyridin-3-yl)-N-(3-methyl-4-((1S,4S)-5-oxa-2-azabicyclo[2.2.1]heptan-2-yl)phenyl)pyrimidin-2-amine]",–
< 1000,–,"Cc1cc(-c2ccnc(Nc3ccc(N4C[C@@H]5C[C@H]4CN5C)c(F)c3)n2)cnc1N1CCOCC1 [compound 59, 4-(5-methyl-6-(morpholin-4-yl)pyridin-3-yl)-N-(3-fluoro-4-((1S,4S)-5-methyl-2,5-diazabicyclo[2.2.1]heptan-2-yl)phenyl)pyrimidin-2-amine]",–
